Common to all, as to assay type: cell-based
Assay [1] deals with SK-N-BE(2) cells. The assay can be described thus: Western blot of RA signaling proteins. The conditions noted are these: 1 μM 5-AZA with 1 μM RA, 24 hrs. On the procedure: (§1) Protein extraction and immunoblot. Cells were washed with ice-cold PBS buffer (Invitrogen, 20012050) and lysed with harvest buffer (10 mM Hepes pH 7.9, 50 mM NaCl, 500 mM sucrose, 0.1 mM EDTA and 0.5% Trition X-100) supplemented with 1% Halt inhibitors (Thermo Scientific™, 78443) for 10 minutes. Cell lysate was centrifuged at 3000 rpm for 3 min at 4° C. The supernatant containing cytosolic proteins was transferred to a different tube. The pellet containing nuclear proteins was dissolved with nuclear lysis buffer (10 mM Hepes pH 7.9, 0.5M NaCl, 0.1 mM EDTA, 0.1 mM EGTA and 0.1% NP40) supplemented with 1% Halt inhibitors (Thermo Scientific™, 78443) for 5 minutes at 4° C. Then the solution was sonicated at 4° C. for 6 cycles (1 cycle=30 s sonication and 30 s cooldown with “High” energy intensity) using a Bioruptor® Plus sonication (Diagenode, UCD-300). After sonication, the solution was centrifuged at 15,000 rpm for 10 minutes. The supernatant was kept as nuclear extraction. Protein concentration was determined by BCA assay (Thermo Scientific, 23227). 5 μg nuclear proteins or 7.5 μg cytosolic proteins were boiled in loading buffer with reducing reagents (Invitrogen, NuPAGE™ LDS Sample Buffer (4X), NP0007), then separated with SDS-PAGE (Nupage™ 4-12% Bis-Tris Protein Gels, 1.0 mm, Invitrogen™, NP0322BOX). Protein was transferred onto a nitrocellulose membrane (Thermo Scientific™, 88018). After blocking in 5% non-fat milk for 30 minutes at room temperature (RT), the primary antibody was added for incubation overnight at 4° C. After washing with TBST (CST, #9997, 1:10 diluted by deionized water) for 3 times, HRP-conjugated secondary antibodies were applied. Signals were detected with an ECL kit (Thermo Scientific™, 34577) by using BioRad Universal Hood II.

The test system of assay [2] is RA-resistant neuroblastoma cells. Description: Morphological differentiation with 5-AZA and 13-cis-RA. As to conditions: 5-AZA with 1 μM 13-cis-RA, 3 days and 6 days.
For assay [3], the system named is SK-N-BE(2) cells. The assay can be described thus: Global DNA methylation analysis by LC-MS (5mdc/dc). As to conditions: 1 μM, 5 h, 24 h and 48 h vs DMSO.
A further assay has as its system SMS-KCNR. The assay can be described thus: Cell proliferation and morphology change under RA treatment. As to conditions: 13-cis-RA. As for the experimental part:
(§2) Cell proliferation and clonogenic assay. 2×10^4 cells were seeded in 12 well-plate and allowed to attached overnight. Then the cells were treated with various conditions as indicated for 48 h or 96 h (n=3). After treatment, cells were counted using hemocytometer.

The test system of another assay is NB16. Described as above. The conditions noted are these: NB16, 13-cis-RA. As for the experimental part: as §2
In another assay the test system is CHP134. The description is as above. The conditions noted are these: CHP134, 13-cis-RA. As for the experimental part:
as §2

A further assay has as its system SK-N-BE(2). The description is as above. The conditions noted are these: 13-cis-RA. As for the experimental part: as §2
The subject of another assay is SK-N-BE2. The assay can be described thus: Expression of RA receptors under RA treatment. As to conditions: SK-N-BE2, RA 24 h. On the procedure:
as §1

For the next assay, the system named is NB16 cells. The assay can be described thus: Expression of RA receptors under RA treatment. The conditions noted are these: NB16, RA 24 h. On the procedure:
as §1

As for `Nc1ncn([C@@H]2O[C@H](CO)[C@@H](O)[C@H]2O)c(=O)n1` [5-Aza, 5-Azacytidine], in the assay with SK-N-BE(2) cells [1], the “RA-induced expression of CRABP2” value is “enhanced” and the “RA-induced expression of RARγ” value is on record as “enhanced”. For the same compound, the “differentiation with RA (morphological changes)” value in [2] is given as “induced differentiation”. For the same compound, the “global DNA methylation (ratio of 5-methyl-deoxycytidine to deoxycytidine)” value with SK-N-BE(2) cells [3] was “reduced”.
Take `CC1=C(/C=C/C(C)=C/C=C/C(C)=C\C(=O)O)C(C)(C)CCC1` [RA, 13-cis-retinoic acid]: the proliferation result with SMS-KCNR (48 hrs and 96 hrs) is on record as “proliferation arrest”; in the assay on CHP134 (48 hrs and 96 hrs), “proliferation arrest”. For the same compound, the neuron differentiation morphology result with SMS-KCNR (96 hrs) and in the assay with CHP134 (96 hrs) was “significantly induced” each time. The proliferation arrest result was “did not show” in the assay with NB16 (48 hrs and 96 hrs); “did not show” in the assay on SK-N-BE(2) (48 hrs and 96 hrs). For the same compound, the differentiation morphology entry in the assay with NB16 (96 hrs) and in the assay on SK-N-BE(2) (96 hrs) was “did not show” throughout. The “induction of RARα upon RA treatment (vs RA-sensitive cell lines)” value with SK-N-BE2 and in the assay with NB16 cells was “less induction” each time. Besides, the “induction of RARγ upon RA treatment (vs RA-sensitive cell lines)” value in the assay with SK-N-BE2 and in the assay with NB16 cells was “less induction” each time.
